From PubChem BioAssay (NCI)
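Cells were grown in 96-well plates and exposed to each compound for 48 hours at five concentrations; endpoints were interpolated linearly between bracketing concentrations, or set to the highest concentration if not reached. At the GI50, growth is halved. TGI denotes the concentration required for complete inhibition of growth.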

Key:
Assay in all cases: inhibition of tumour cell growth, NCI panel, 48 h
UACC-62 melanoma = test system: UACC-62 melanoma
SW-620 colon = test system: SW-620 colon
RXF 393 renal = test system: RXF 393 renal
SR leukemia = test system: SR leukemia
SK-MEL-28 melanoma = test system: SK-MEL-28 melanoma
SK-OV-3 ovarian = test system: SK-OV-3 ovarian
HCT-116 colon = test system: HCT-116 colon
A549 NSCLC = test system: A549 NSCLC
NCI/ADR-RES ovarian = test system: NCI/ADR-RES ovarian
HOP-62 NSCLC = test system: HOP-62 NSCLC
K-562 leukemia = test system: K-562 leukemia
OVCAR-8 ovarian = test system: OVCAR-8 ovarian
IGROV1 ovarian = test system: IGROV1 ovarian
SF-268 CNS = test system: SF-268 CNS
RPMI-8226 leukemia = test system: RPMI-8226 leukemia
OVCAR-5 ovarian = test system: OVCAR-5 ovarian
NCI-H23 lung = test system: NCI-H23 lung
KM12 colon = test system: KM12 colon
TK-10 renal = test system: TK-10 renal
OVCAR-3 ovarian = test system: OVCAR-3 ovarian
M14 melanoma = test system: M14 melanoma
SNB-19 CNS = test system: SNB-19 CNS
SF-539 CNS = test system: SF-539 CNS
SK-MEL-2 melanoma = test system: SK-MEL-2 melanoma
U251 CNS = test system: U251 CNS
MOLT-4 leukemia = test system: MOLT-4 leukemia
ACHN renal = test system: ACHN renal
EKVX NSCLC = test system: EKVX NSCLC
SK-MEL-5 melanoma = test system: SK-MEL-5 melanoma
CAKI-1 renal = test system: CAKI-1 renal
PC-3 prostate = test system: PC-3 prostate
SF-295 CNS = test system: SF-295 CNS
NCI-H460 lung = test system: NCI-H460 lung
NCI-H522 lung = test system: NCI-H522 lung
T-47D breast = test system: T-47D breast
NCI-H226 lung = test system: NCI-H226 lung
MDA-MB-231 breast = test system: MDA-MB-231 breast
HL-60(TB) leukemia = test system: HL-60(TB) leukemia
786-0 renal = test system: 786-0 renal
DU-145 prostate = test system: DU-145 prostate
HT29 colon = test system: HT29 colon
MDA-MB-435 = test system: MDA-MB-435
OVCAR-4 ovarian = test system: OVCAR-4 ovarian
LOX IMVI melanoma = test system: LOX IMVI melanoma
HS 578T breast = test system: HS 578T breast
MCF7 breast = test system: MCF7 breast
UO-31 renal = test system: UO-31 renal
UACC-257 melanoma = test system: UACC-257 melanoma
SN12C renal = test system: SN12C renal
COLO 205 colon = test system: COLO 205 colon
MALME-3M melanoma = test system: MALME-3M melanoma
SNB-75 CNS = test system: SNB-75 CNS
HCT-15 colon = test system: HCT-15 colon
A498 renal = test system: A498 renal
CCRF-CEM leukemia = test system: CCRF-CEM leukemia

## C/C(=C\COP(=O)(O)OP(=O)(O)O)CCCOCc1ccccc1
UACC-62 melanoma
  TGI: > 100 µM
SW-620 colon
  TGI: > 100 µM
RXF 393 renal
  TGI: > 100 µM
SR leukemia
  TGI: > 100 µM
SK-MEL-28 melanoma
  TGI: > 100 µM
SK-OV-3 ovarian
  TGI: > 100 µM
HCT-116 colon
  TGI: > 100 µM
A549 NSCLC
  TGI: > 100 µM
NCI/ADR-RES ovarian
  TGI: > 100 µM
HOP-62 NSCLC
  TGI: > 100 µM
K-562 leukemia
  TGI: > 100 µM
OVCAR-8 ovarian
  TGI: > 100 µM
IGROV1 ovarian
  TGI: > 100 µM
SF-268 CNS
  TGI: > 100 µM
RPMI-8226 leukemia
  TGI: > 100 µM
OVCAR-5 ovarian
  TGI: > 100 µM
NCI-H23 lung
  TGI: > 100 µM
KM12 colon
  TGI: > 100 µM
TK-10 renal
  TGI: > 100 µM
OVCAR-3 ovarian
  TGI: > 100 µM
M14 melanoma
  TGI: > 100 µM
SNB-19 CNS
  TGI: > 100 µM
SF-539 CNS
  TGI: > 100 µM
SK-MEL-2 melanoma
  TGI: > 100 µM
U251 CNS
  TGI: > 100 µM
MOLT-4 leukemia
  TGI: > 100 µM
ACHN renal
  TGI: > 100 µM
EKVX NSCLC
  TGI: > 100 µM
SK-MEL-5 melanoma
  TGI: > 100 µM
CAKI-1 renal
  TGI: > 100 µM
PC-3 prostate
  TGI: > 100 µM
SF-295 CNS
  TGI: > 100 µM
NCI-H460 lung
  TGI: > 100 µM
NCI-H522 lung
  TGI: > 100 µM
T-47D breast
  TGI: > 100 µM
NCI-H226 lung
  TGI: > 100 µM
MDA-MB-231 breast
  TGI: > 100 µM
HL-60(TB) leukemia
  TGI: > 100 µM
786-0 renal
  TGI: > 100 µM
DU-145 prostate
  TGI: > 100 µM
HT29 colon
  TGI: > 100 µM
MDA-MB-435
  TGI: > 100 µM
OVCAR-4 ovarian
  TGI: > 100 µM
LOX IMVI melanoma
  TGI: > 100 µM
HS 578T breast
  TGI: > 100 µM
MCF7 breast
  TGI: > 100 µM
UO-31 renal
  TGI: > 100 µM
UACC-257 melanoma
  TGI: > 100 µM
SN12C renal
  TGI: > 100 µM
COLO 205 colon
  TGI: > 100 µM
MALME-3M melanoma
  TGI: > 100 µM
SNB-75 CNS
  TGI: > 100 µM
HCT-15 colon
  TGI: > 100 µM

## CCOC(=O)/C(C#N)=C\C=C(\Sc1nc2ccccc2s1)c1ccc(Cl)cc1
UACC-62 melanoma
  GI50: 29.8 µM
  TGI: 81.5 µM
SW-620 colon
  GI50: 14.3 µM
  TGI: 39.2 µM
RXF 393 renal
  GI50: 18.3 µM
  TGI: 37.6 µM
SR leukemia
  GI50: 4.91 µM
  TGI: 46.9 µM
SK-MEL-28 melanoma
  GI50: 25.5 µM
  TGI: 69.5 µM
SK-OV-3 ovarian
  GI50: 39.6 µM
  TGI: > 100 µM
HCT-116 colon
  GI50: 17.1 µM
  TGI: 33.1 µM
A498 renal
  GI50: 27.7 µM
  TGI: 72.5 µM
A549 NSCLC
  GI50: > 100 µM
  TGI: > 100 µM
NCI/ADR-RES ovarian
  GI50: 27.5 µM
  TGI: 61.2 µM
HOP-62 NSCLC
  GI50: 29.1 µM
  TGI: 72.2 µM
K-562 leukemia
  GI50: 20.2 µM
  TGI: > 100 µM
OVCAR-8 ovarian
  GI50: 30.4 µM
  TGI: 83.9 µM
IGROV1 ovarian
  GI50: 18.8 µM
  TGI: 37.6 µM
SF-268 CNS
  GI50: 31.8 µM
  TGI: > 100 µM
RPMI-8226 leukemia
  GI50: 2.47 µM
  TGI: 14 µM
OVCAR-5 ovarian
  GI50: > 100 µM
  TGI: > 100 µM
NCI-H23 lung
  GI50: 20.9 µM
  TGI: 38.9 µM
KM12 colon
  GI50: 38 µM
  TGI: > 100 µM
TK-10 renal
  GI50: 20 µM
  TGI: 37.3 µM
OVCAR-3 ovarian
  GI50: 14.4 µM
  TGI: 27.5 µM
M14 melanoma
  GI50: 26.4 µM
  TGI: 54.3 µM
SNB-19 CNS
  GI50: 66.6 µM
  TGI: > 100 µM
SF-539 CNS
  GI50: 22.1 µM
  TGI: 40.8 µM
SK-MEL-2 melanoma
  GI50: 14.8 µM
  TGI: 33.5 µM
U251 CNS
  GI50: 29 µM
  TGI: > 100 µM
MOLT-4 leukemia
  GI50: 3.88 µM
  TGI: > 100 µM
EKVX NSCLC
  GI50: 14.8 µM
  TGI: 31.6 µM
SK-MEL-5 melanoma
  GI50: 15.1 µM
  TGI: 31.9 µM
CAKI-1 renal
  GI50: 19.5 µM
  TGI: 41.4 µM
PC-3 prostate
  GI50: 13.5 µM
  TGI: 26.3 µM
SF-295 CNS
  GI50: 37.9 µM
  TGI: > 100 µM
NCI-H460 lung
  GI50: 80.8 µM
  TGI: > 100 µM
NCI-H522 lung
  GI50: 18.5 µM
  TGI: 41.4 µM
T-47D breast
  GI50: 20.3 µM
  TGI: 45.1 µM
NCI-H226 lung
  GI50: 24 µM
  TGI: 46.7 µM
CCRF-CEM leukemia
  GI50: 2.28 µM
  TGI: 9.5 µM
MDA-MB-231 breast
  GI50: 50.9 µM
  TGI: > 100 µM
HL-60(TB) leukemia
  GI50: 24.2 µM
  TGI: > 100 µM
786-0 renal
  GI50: 19.3 µM
  TGI: 36.3 µM
DU-145 prostate
  GI50: 18.7 µM
  TGI: 35.4 µM
MDA-MB-435
  GI50: 16.8 µM
  TGI: 35.3 µM
OVCAR-4 ovarian
  GI50: 22 µM
  TGI: 57.8 µM
LOX IMVI melanoma
  GI50: 10.9 µM
  TGI: > 100 µM
HS 578T breast
  GI50: 31.6 µM
  TGI: 68 µM
MCF7 breast
  GI50: 29.1 µM
  TGI: 84.5 µM
UO-31 renal
  GI50: 17 µM
  TGI: 35.4 µM
UACC-257 melanoma
  GI50: 13.7 µM
  TGI: 46.8 µM
SN12C renal
  GI50: 19.9 µM
  TGI: 45.2 µM
COLO 205 colon
  GI50: 20.1 µM
  TGI: 42.8 µM
MALME-3M melanoma
  GI50: 19.4 µM
  TGI: 37.9 µM
HCT-15 colon
  GI50: 16.4 µM
  TGI: 45.2 µM
